Measurements from PMC12746157, “Light-Regulated Agonists Spatiotemporally Activating the Vitamin D Receptor Mitigate Psoriasis-like Inflammation in Mice without Inducing Hypercalcemia” (ACS Central Science, 2025).

Experiment: Thermal relaxation and photoisomerization rates of PhotoVDRM in aqueous assay buffer
Type: physicochemical
Conditions: for photoisomerization rate (τ) trans to cis: 365 nm, aqueous buffer 0.6% DMSO
Protocol: The UV–vis absorbance spectra of all molecules were measured in the dark and after the application of light of different wavelengths ranging from 365 to 770 nm (Figure A and Figures S1–S3). […] Consequently, violet/UV light below 405 nm efficiently promoted photoisomerization, which produced a dramatic decrease in the π-π* band and a significant increase in the n-π* band at around 445 nm (Table ). […] The proportion of molecules at the PSS in trans isomer upon constant illumination with light at 525 nm and cis at 365 nm was in general above 50%, reaching a remarkable >99% for compound 11d (Table and Figures S4 and S5). […] The greater stability of the trans isomer was consistent with previous quantum mechanical and molecular mechanics predictions. Measuring the photoisomerization properties of compound PhotoVDRM allowed us to determine the photoisomerization quantum yields of the compound by solving a differential equation for photoisomerization. We used MATLAB to perform regression and arrive at the following photoisomerization quantum yields: ϕ365 nm (trans) = 0.0427, ϕ365 nm (cis) = 0.0501, ϕ470 nm (trans) = 0.1857, and ϕ470 nm (cis) = 0.2281 (Figure S9). […] A deeper photocharacterization of PhotoVDRM allowed us to measure the kinetics of photoconversion upon constant illumination with two wavelengths and three light intensities (Figure D and Figure S10). […] Indeed, with LED devices producing light at intensities as low as 0.05 mW/mm^2 we were able to transform trans to cis in around 15.5 s. This time was reduced to 6 and 2 s when the light intensity was increased to 0.15 and 0.75 mW/mm^2. […] Therefore, we proceeded to test the ability of the chemical library to activate the VDR under different light conditions.
2 Photochemical characterization of compound PhotoVDRM. (A) UV–vis absorption spectra of compound PhotoVDRM under different light conditions. (B) Half-lifetime estimation of compound PhotoVDRM, absorbance was measured at 365 nm. (C) Multiple cis/trans isomerization cycles (365/460 nm) show the stability of the compound over 6 cycles of light application. (D) Photoisomerization under constant illumination with light at 365 nm (violet shade) and 470 nm (blue shade). Light was applied with a CoolLED pe-4000 at 50% intensity that corresponded to 0.75 mW/mm^2 for the light at 365 nm and 0.56 mW/mm^2 for the light at 470 nm; 10% intensity corresponded to 0.15 mW/mm^2 for the light at 365 nm and 0.12 mW/mm^2 for the light at 470 nm; and 5% intensity corresponded to 0.06 mW/mm^2 for the light at 365 nm and 0.05 mW/mm^2 for the light at 470 nm. The photoisomerization rates (τ) using light at 365 nm were measured as 2, 6, and 15.5 s with 50%, 10% and 5% of intensity. […]

With `Cc1cc(OCC(O)C(C)(C)C)ccc1N=Nc1cccc(-c2ccc(C(=O)O)cc2)c1` (stereo not shown) [Compound 11b] as the molecule, how does the “photoisomerization rate (τ) trans to cis” value (10% intensity, 0.15 mW/mm^2, 25 °C) read?
The value was 6 s.

And the “photoisomerization rate (τ) trans to cis” value (50% intensity, 0.75 mW/mm^2, 25 °C)?
The value was 2 s.

What about the thermal relaxation (aqueous buffer used for pharmacological experiments (0.5% DMSO)) of the same molecule?
Its thermal relaxation is 3 h.

What about the “thermal relaxation in aqueous buffer, times faster than in pure DMSO” value (buffer vs pure DMSO) of the same molecule?
Its value is about 7 times.
